Laboratory results: patent publication US20260215430A1, “HERBICIDAL COMPOSITIONS” (SYNGENTA CROP PROTECTION AG, priority 2022, published 2026)

How the values were obtained:
[1] = system: CHEAL; test: Post-emergence study L-GLU+MST, CHEAL control; format: in vivo, Chenopodium Album L.; settings: 7 days after treatment
Excerpt: (§1) In a post-emergence study of AMPA, CHEAL, and ABUTH (Velvet Leaf (Abutilon theophrast)) applications were done to 2 to 4-inch weeds with a spray volume of 15 gallons/acre. Treatments applied are described below, and further included an adjuvant.
The results of CHEAL control with L-GLU+MST mixtures at 7 days after treatment are summarized in the below matrix, where bolded values represent synergy as calculated by Colby.

[2] = system: Grasses; test: Postemergence field study on natural weed populations, grasses; format: in vivo; settings: 28-31 DAA
[3] = system: All weeds; test: Postemergence field study on natural weed populations, all weeds; format: in vivo; settings: 28-31 DAA
[4] = system: SSBL (AMAPA, CHEAL, AMBEL); test: Postemergence field study on natural weed populations, small seeded broadleaf; format: in vivo; settings: 28-31 DAA
Procedure: In a postemergence field study on a natural weed populations. Herbicides were applied to 4-5″ weeds and efficacy was evaluated at 14 and 28-35 days after application. Rates were in g ai/ha. Data shown was small seeded broadleaf (SSBL; AMPA=Amaranthus palmeri; CHEAL=Chenopodium Album L.; AMBEL=Ambrosia Artemisiifolia L.) control 28-31 DAA. 100% was completely dead and 0% was no plant response.

[5] = system: ABUTH; test: Post-emergence study L-GLU+MST, ABUTH control; format: in vivo, Velvet Leaf (Abutilon theophrast); settings: 7 days after treatment
Excerpt: as §1
The results of ABUTH control with L-GLU+MST mixtures at 7 days after treatment are summarized in the below matrix, where bolded values represent synergy as calculated by Colby.

[6] = system: AMAPA; test: Post-emergence study L-GLU+MST, AMAPA control; format: in vivo, Amaranthus palmeri; settings: 7 days after treatment
Excerpt: as §1
The results of AMAPA control with L-GLU+MST mixtures at 7 days after treatment are summarized in the below matrix, where bolded values represent synergy as calculated by Colby.

[7] = system: SETFA; test: Post-emergence study L-GLU+BIR, SETFA control; format: in vivo, Setaria faberi
Excerpt: (§2) In a post-emergence study of AMPA, CHEAL, and Setaria faberi (SETFA) applications were done to 2 to 4-inch weeds with a spray volume of 15 gallons/acre. Treatments applied are described below, and further included an adjuvant.
The results of SETFA control with L-GLU+BIR (bicyclopyrone) mixtures at 7 and 14 days after treatment, respectively, are summarized in the below matrix, where bolded values represent synergy as calculated by Colby.

[8] = system: AMAPA; test: Post-emergence study L-GLU+BIR, AMAPA control; format: in vivo, Amaranthus palmeri; settings: 9 days after treatment
Excerpt: as §2
The results of AMAPA control with L-GLU+BIR (bicyclopyrone) mixtures at 9 days after treatment are summarized in the below matrix, where bolded values represent synergy as calculated by Colby.

[9] = system: CHEAL; test: Post-emergence study L-GLU+BIR, CHEAL control; format: in vivo, Chenopodium Album L.; settings: 9 days after treatment
Excerpt: as §2
The results of CHEAL control with L-GLU+BIR (bicyclopyrone) mixtures at 9 days after treatment are summarized in the below matrix, where bolded values represent synergy as calculated by Colby.

## CS(=O)(=O)c1ccc(C(=O)C2C(=O)CCCC2=O)c([N+](=O)[O-])c1 [Mesotrione]
[1]; MST 1.5 g ai/ha alone
  % Control CHEAL: 78%
[1]; MST 3 g ai/ha alone
  % Control CHEAL: 85%
[1]; MST 6 g ai/ha alone
  % Control CHEAL: 92%
[1]; MST 12 g ai/ha alone
  % Control CHEAL: 93%
[1]; MST 24 g ai/ha alone
  % Control CHEAL: 93%
[1]; MST 60 g ai/ha alone
  % Control CHEAL: 90%
[2]; Mesotrione 105 g/ha
  control, Grasses: 35%
[3]; Mesotrione 105 g/ha
  control, All weeds: 44%
[4]; Mesotrione 105 g/ha
  control, SSBL (AMAPA, CHEAL, AMBEL): 26%
[5]; MST 1.5 g ai/ha alone
  % Control ABUTH: 85%
[5]; MST 3 g ai/ha alone
  % Control ABUTH: 83%
[5]; MST 6 g ai/ha alone
  % Control ABUTH: 95%
[5]; MST 12 g ai/ha alone
  % Control ABUTH: 92%
[5]; MST 24 g ai/ha alone
  % Control ABUTH: 96%
[5]; MST 60 g ai/ha alone
  % Control ABUTH: 92%
[6]; MST 1.5 g ai/ha alone
  % Control AMAPA: 20%
[6]; MST 3 g ai/ha alone
  % Control AMAPA: 30%
[6]; MST 6 g ai/ha alone
  % Control AMAPA: 37%
[6]; MST 12 g ai/ha alone
  % Control AMAPA: 72%
[6]; MST 24 g ai/ha alone
  % Control AMAPA: 85%
[6]; MST 60 g ai/ha alone
  % Control AMAPA: 85%

## CP(=O)(O)CC[C@H](N)C(=O)O [L-glufosinate]
[7]; L-GLU 5 g ai/ha alone, 14 Days after Treatment
  % Control SETFA: 10%
[7]; L-GLU 5 g ai/ha alone, 7 days after treatment
  % Control SETFA: 13%
[7]; L-GLU 10 g ai/ha alone, 14 Days after Treatment
  % Control SETFA: 35%
[7]; L-GLU 10 g ai/ha alone, 7 days after treatment
  % Control SETFA: 48%
[7]; L-GLU 30 g ai/ha alone, 14 Days after Treatment
  % Control SETFA: 65%
[7]; L-GLU 30 g ai/ha alone, 7 days after treatment
  % Control SETFA: 85%
[7]; L-GLU 60 g ai/ha alone, 14 Days after Treatment
  % Control SETFA: 89%
[7]; L-GLU 60 g ai/ha alone, 7 days after treatment
  % Control SETFA: 95%
[7]; L-GLU 120 g ai/ha alone, 14 Days after Treatment
  % Control SETFA: 100%
[7]; L-GLU 120 g ai/ha alone, 7 days after treatment
  % Control SETFA: 100%
[1]; L-GLU 5 g ai/ha alone
  % Control CHEAL: 3%
[1]; L-GLU 10 g ai/ha alone
  % Control CHEAL: 8%
[1]; L-GLU 30 g ai/ha alone
  % Control CHEAL: 72%
[1]; L-GLU 60 g ai/ha alone
  % Control CHEAL: 90%
[1]; L-GLU 120 g ai/ha alone
  % Control CHEAL: 90%
[2]; L-glufosinate 328 g/ha
  control, Grasses: 83%
[3]; L-glufosinate 328 g/ha
  control, All weeds: 70%
[8]; L-GLU 5 g ai/ha alone
  % Control AMAPA: 17%
[8]; L-GLU 10 g ai/ha alone
  % Control AMAPA: 23%
[8]; L-GLU 30 g ai/ha alone
  % Control AMAPA: 57%
[8]; L-GLU 60 g ai/ha alone
  % Control AMAPA: 87%
[8]; L-GLU 120 g ai/ha alone
  % Control AMAPA: 93%
[4]; L-glufosinate 328 g/ha
  control, SSBL (AMAPA, CHEAL, AMBEL): 55%
[9]; L-GLU 5 g ai/ha alone
  % Control CHEAL: 0%
[9]; L-GLU 10 g ai/ha alone
  % Control CHEAL: 13%
[9]; L-GLU 30 g ai/ha alone
  % Control CHEAL: 38%
[9]; L-GLU 60 g ai/ha alone
  % Control CHEAL: 88%
[9]; L-GLU 120 g ai/ha alone
  % Control CHEAL: 100%
[5]; L-GLU 5 g ai/ha alone
  % Control ABUTH: 2%
[5]; L-GLU 10 g ai/ha alone
  % Control ABUTH: 8%
[5]; L-GLU 30 g ai/ha alone
  % Control ABUTH: 38%
[5]; L-GLU 60 g ai/ha alone
  % Control ABUTH: 67%
[5]; L-GLU 120 g ai/ha alone
  % Control ABUTH: 87%
[6]; L-GLU 5 g ai/ha alone
  % Control AMAPA: 27%
[6]; L-GLU 10 g ai/ha alone
  % Control AMAPA: 33%
[6]; L-GLU 30 g ai/ha alone
  % Control AMAPA: 83%
[6]; L-GLU 60 g ai/ha alone
  % Control AMAPA: 97%
[6]; L-GLU 120 g ai/ha alone
  % Control AMAPA: 100%

## bicyclopyrone
[7]; BIR 3.13 g ai/ha alone, 7 Days after Treatment
  % Control SETFA: 28%
[7]; BIR 3.13 g ai/ha alone, 14 Days after Treatment
  % Control SETFA: 23%
[7]; BIR 6.25 g ai/ha alone, 7 Days after Treatment
  % Control SETFA: 35%
[7]; BIR 6.25 g ai/ha alone, 14 Days after Treatment
  % Control SETFA: 32%
[7]; BIR 12.5 g ai/ha alone, 7 Days after Treatment
  % Control SETFA: 62%
[7]; BIR 12.5 g ai/ha alone, 14 Days after Treatment
  % Control SETFA: 45%
[7]; BIR 25 g ai/ha alone, 7 Days after Treatment
  % Control SETFA: 73%
[7]; BIR 25 g ai/ha alone, 14 Days after Treatment
  % Control SETFA: 58%
[7]; BIR 50 g ai/ha alone, 7 Days after Treatment
  % Control SETFA: 78%
[7]; BIR 50 g ai/ha alone, 14 Days after Treatment
  % Control SETFA: 75%
[7]; BIR 100 g ai/ha alone, 7 Days after Treatment
  % Control SETFA: 77%
[7]; BIR 100 g ai/ha alone, 14 Days after Treatment
  % Control SETFA: 90%
[8]; BIR 1.56 g ai/ha alone
  % Control AMAPA: 27%
[8]; BIR 3.13 g ai/ha alone
  % Control AMAPA: 37%
[8]; BIR 6.25 g ai/ha alone
  % Control AMAPA: 48%
[8]; BIR 12.5 g ai/ha alone
  % Control AMAPA: 53%
[8]; BIR 25 g ai/ha alone
  % Control AMAPA: 80%
[8]; BIR 50 g ai/ha alone
  % Control AMAPA: 90%
[9]; BIR 1.56 g ai/ha alone
  % Control CHEAL: 58%
[9]; BIR 3.13 g ai/ha alone
  % Control CHEAL: 75%
[9]; BIR 6.25 g ai/ha alone
  % Control CHEAL: 88%
[9]; BIR 12.5 g ai/ha alone
  % Control CHEAL: 92%
[9]; BIR 25 g ai/ha alone
  % Control CHEAL: 96%
[9]; BIR 50 g ai/ha alone
  % Control CHEAL: 97%
